Experiments:
Assay in all cases: biochemical
Design in all cases: KINOMEscan competition binding panel (Eurofins DiscoverX), single concentration, percent inhibition
Conditions in all cases: read-out: 15 at 1 µM % inhibition
[1] = molecular target: T1, ABL1(F317I)-nonphosphorylated (Homo sapiens, UniProt P00519, F317I)
T1 construct: nonphosphorylated
Method in brief: (§1)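 KINOMEscan selectivity screen; >400 human kinases; compound at 1 µM, single concentration.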

[2] = molecular target: T2, ABL1(F317L)-phosphorylated (Homo sapiens, UniProt P00519, F317L)
T2 construct: phosphorylated
Method in brief: as §1

BRK = molecular target: T3, BRK (Homo sapiens, UniProt Q13882)
T3 construct: gene PTK6
Method in brief: as §1

CDK2 = CDK2 (Homo sapiens, UniProt P24941)
Method in brief: as §1

CSNK2A2 = CSNK2A2 (Homo sapiens, UniProt P19784)
Method in brief: as §1

FES = FES (Homo sapiens, UniProt P07332)
Method in brief: as §1

FGFR3 = FGFR3 (Homo sapiens, UniProt P22607)
Method in brief: as §1

FLT3 = FLT3 (Homo sapiens, UniProt P36888)
Method in brief: as §1

FLT3(D835H) = FLT3(D835H) (Homo sapiens, UniProt P36888, D835H)
Method in brief: as §1

GRK7 = GRK7 (Homo sapiens, UniProt Q8WTQ7)
Method in brief: as §1

HIPK3 = HIPK3 (Homo sapiens, UniProt Q9H422)
Method in brief: as §1

KIT(V559D,V654A) = KIT(V559D,V654A) (Homo sapiens, UniProt P10721, V559D/V654A)
Method in brief: as §1

MAP3K3 = MAP3K3 (Homo sapiens, UniProt Q99759)
Method in brief: as §1

MELK = MELK (Homo sapiens, UniProt Q14680)
Method in brief: as §1

MRCKA = molecular target: T4, MRCKA (Homo sapiens, UniProt Q5VT25)
T4 construct: gene CDC42BPA
Method in brief: as §1

MST3 = molecular target: T5, MST3 (Homo sapiens, UniProt Q9Y6E0)
T5 construct: gene STK24
Method in brief: as §1

PIK3CB = PIK3CB (Homo sapiens, UniProt P42338)
Method in brief: as §1

PYK2 = molecular target: T6, PYK2 (Homo sapiens, UniProt Q14289)
T6 construct: gene PTK2B
Method in brief: as §1

SRMS = SRMS (Homo sapiens, UniProt Q9H3Y6)
Method in brief: as §1

TAOK2 = TAOK2 (Homo sapiens, UniProt Q9UL54)
Method in brief: as §1

ULK2 = ULK2 (Homo sapiens, UniProt Q8IYT8)
Method in brief: as §1

ULK3 = ULK3 (Homo sapiens, UniProt Q6PHR2)
Method in brief: as §1

WNK1 = WNK1 (Homo sapiens, UniProt Q9H4A3)
Method in brief: as §1

ZAK = molecular target: T7, ZAK (Homo sapiens, UniProt Q9NYL2)
T7 construct: gene MAP3K20
Method in brief: as §1

GRK7, sequence (Q8WTQ7 whole entry): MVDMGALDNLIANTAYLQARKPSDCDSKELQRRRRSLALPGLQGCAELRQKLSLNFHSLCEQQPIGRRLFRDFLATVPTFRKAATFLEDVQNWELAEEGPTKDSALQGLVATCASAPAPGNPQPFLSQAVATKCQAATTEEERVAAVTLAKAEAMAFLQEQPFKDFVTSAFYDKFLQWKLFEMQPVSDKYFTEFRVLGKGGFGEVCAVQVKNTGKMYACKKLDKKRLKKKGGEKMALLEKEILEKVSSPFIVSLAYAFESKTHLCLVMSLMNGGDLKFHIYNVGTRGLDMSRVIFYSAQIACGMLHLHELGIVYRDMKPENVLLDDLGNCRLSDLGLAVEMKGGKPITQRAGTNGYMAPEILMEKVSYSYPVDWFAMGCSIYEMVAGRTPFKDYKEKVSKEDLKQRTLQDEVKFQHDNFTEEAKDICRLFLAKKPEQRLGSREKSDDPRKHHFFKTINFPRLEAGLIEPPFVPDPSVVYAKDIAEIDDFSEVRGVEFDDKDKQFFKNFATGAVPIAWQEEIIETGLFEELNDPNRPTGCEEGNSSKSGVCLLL
MAP3K3, sequence (Q99759 whole entry): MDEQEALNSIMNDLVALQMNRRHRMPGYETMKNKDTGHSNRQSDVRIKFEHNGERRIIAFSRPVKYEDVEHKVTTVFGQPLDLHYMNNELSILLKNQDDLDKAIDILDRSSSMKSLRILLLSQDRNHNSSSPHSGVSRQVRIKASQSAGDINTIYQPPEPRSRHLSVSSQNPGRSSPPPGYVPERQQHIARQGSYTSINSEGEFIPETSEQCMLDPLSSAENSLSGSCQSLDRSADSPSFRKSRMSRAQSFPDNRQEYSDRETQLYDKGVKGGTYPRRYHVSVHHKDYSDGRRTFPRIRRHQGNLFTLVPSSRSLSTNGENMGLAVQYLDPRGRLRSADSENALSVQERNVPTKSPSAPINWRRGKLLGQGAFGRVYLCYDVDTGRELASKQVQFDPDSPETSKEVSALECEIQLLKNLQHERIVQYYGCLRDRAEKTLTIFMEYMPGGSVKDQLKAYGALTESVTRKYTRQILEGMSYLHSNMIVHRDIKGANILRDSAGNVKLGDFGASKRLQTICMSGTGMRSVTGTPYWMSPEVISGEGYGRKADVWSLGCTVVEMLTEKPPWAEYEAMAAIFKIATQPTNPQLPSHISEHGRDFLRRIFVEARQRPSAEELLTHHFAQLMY
T2 sequence (P00519 whole entry F317L): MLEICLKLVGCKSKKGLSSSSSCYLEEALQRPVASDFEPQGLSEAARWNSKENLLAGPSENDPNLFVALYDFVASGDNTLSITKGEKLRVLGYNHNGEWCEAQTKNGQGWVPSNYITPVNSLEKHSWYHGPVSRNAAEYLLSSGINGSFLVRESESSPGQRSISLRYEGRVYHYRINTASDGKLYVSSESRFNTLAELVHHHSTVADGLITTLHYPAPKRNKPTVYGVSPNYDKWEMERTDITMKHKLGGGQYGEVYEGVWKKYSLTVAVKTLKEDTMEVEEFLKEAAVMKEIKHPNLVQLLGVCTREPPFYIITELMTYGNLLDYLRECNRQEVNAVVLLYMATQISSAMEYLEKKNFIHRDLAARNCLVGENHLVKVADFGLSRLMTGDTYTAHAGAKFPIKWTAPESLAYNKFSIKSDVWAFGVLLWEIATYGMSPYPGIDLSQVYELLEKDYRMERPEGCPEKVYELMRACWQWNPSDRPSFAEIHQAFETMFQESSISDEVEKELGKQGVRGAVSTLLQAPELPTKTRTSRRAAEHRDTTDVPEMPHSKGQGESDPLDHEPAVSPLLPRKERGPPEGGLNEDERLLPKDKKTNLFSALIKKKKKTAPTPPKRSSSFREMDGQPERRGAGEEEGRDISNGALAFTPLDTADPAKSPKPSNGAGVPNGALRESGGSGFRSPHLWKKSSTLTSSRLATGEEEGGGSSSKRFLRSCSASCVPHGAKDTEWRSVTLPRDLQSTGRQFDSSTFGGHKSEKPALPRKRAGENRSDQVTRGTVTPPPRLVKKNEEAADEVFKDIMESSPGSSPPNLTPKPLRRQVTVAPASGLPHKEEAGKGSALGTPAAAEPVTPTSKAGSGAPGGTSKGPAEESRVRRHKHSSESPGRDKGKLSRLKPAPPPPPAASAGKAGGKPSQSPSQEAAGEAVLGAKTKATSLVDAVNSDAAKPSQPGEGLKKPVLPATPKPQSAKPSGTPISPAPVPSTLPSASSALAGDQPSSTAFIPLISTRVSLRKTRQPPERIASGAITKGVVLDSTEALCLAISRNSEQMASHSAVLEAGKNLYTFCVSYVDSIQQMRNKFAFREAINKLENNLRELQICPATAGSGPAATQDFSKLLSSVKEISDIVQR
T1 sequence (P00519 whole entry F317I): as the sequence (P00519 whole entry F317L) above, with L317I counted along it
MELK, sequence (Q14680 whole entry): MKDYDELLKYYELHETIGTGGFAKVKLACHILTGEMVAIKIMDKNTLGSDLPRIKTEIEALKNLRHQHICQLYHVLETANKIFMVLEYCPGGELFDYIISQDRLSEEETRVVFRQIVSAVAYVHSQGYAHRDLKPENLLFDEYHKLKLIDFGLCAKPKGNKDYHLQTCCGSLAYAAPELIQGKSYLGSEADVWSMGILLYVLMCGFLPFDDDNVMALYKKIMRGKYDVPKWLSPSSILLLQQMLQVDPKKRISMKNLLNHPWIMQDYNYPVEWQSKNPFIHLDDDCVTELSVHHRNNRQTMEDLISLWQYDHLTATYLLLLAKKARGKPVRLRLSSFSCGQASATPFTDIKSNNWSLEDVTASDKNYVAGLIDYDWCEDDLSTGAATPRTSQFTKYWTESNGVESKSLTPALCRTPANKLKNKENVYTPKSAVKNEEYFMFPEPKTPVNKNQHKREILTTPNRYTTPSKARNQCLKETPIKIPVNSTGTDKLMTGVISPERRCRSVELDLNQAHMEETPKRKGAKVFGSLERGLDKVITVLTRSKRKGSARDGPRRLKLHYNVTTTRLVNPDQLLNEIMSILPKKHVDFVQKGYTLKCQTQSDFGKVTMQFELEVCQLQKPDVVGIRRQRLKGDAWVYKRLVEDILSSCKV
T7 sequence (Q9NYL2 whole entry): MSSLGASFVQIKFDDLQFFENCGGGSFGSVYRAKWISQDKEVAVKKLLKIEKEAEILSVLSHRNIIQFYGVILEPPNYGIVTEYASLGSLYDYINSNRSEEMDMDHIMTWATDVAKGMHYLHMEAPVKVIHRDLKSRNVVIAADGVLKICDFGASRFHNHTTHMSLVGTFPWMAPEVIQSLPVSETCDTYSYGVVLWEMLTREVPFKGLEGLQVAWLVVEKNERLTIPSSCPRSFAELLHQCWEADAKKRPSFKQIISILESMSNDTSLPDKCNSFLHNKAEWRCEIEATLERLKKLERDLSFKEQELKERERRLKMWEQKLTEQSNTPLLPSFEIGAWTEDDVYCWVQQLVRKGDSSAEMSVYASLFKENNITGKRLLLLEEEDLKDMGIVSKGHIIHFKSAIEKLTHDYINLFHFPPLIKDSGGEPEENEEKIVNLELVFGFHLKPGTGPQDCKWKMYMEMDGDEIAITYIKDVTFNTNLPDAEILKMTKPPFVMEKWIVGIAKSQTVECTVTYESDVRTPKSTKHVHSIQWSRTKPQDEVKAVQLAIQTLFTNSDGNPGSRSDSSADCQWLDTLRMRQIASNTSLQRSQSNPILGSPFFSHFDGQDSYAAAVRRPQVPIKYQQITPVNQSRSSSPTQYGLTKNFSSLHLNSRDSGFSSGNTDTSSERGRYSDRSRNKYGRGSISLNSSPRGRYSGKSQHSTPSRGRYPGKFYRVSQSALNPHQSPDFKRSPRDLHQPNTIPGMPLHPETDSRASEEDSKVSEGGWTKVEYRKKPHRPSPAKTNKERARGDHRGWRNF
PIK3CB, sequence (P42338 whole entry): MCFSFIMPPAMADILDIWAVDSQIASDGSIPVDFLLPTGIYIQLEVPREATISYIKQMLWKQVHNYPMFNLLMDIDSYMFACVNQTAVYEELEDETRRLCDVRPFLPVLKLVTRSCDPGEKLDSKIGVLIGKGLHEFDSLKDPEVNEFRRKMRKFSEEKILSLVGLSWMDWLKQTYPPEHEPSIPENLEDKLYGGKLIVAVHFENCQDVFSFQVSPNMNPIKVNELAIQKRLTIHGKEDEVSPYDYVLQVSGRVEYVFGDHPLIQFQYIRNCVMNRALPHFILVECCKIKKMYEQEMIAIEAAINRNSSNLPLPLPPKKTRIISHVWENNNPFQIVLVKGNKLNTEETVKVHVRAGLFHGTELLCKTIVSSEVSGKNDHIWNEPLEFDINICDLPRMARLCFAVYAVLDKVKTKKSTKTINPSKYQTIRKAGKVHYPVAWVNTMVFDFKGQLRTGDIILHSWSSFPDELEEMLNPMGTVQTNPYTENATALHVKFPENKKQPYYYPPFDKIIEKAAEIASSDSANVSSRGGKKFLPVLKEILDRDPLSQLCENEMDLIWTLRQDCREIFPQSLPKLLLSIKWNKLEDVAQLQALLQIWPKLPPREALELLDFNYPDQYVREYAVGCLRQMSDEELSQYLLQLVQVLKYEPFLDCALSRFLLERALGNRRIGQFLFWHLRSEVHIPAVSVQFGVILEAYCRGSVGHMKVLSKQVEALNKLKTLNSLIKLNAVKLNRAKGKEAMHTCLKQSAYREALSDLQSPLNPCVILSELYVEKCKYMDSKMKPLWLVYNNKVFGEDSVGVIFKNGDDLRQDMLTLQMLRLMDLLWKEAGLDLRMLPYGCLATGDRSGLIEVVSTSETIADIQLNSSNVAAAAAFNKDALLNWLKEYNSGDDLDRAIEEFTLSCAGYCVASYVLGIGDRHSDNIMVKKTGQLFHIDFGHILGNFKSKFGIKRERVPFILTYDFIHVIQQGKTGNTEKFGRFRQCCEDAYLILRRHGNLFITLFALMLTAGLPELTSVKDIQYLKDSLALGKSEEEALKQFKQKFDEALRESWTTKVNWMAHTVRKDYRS

CNS(=O)(=O)c1ccc(N(C)C)c(Nc2nc(C)nc3cc(OC)c(OC)cc23)c1 [compound 15, 3-((6,7-dimethoxy-2-methylquinazolin-4-yl)amino)-4-(dimethylamino)-N-methylbenzenesulfonamide]
inhibition at 1 µM [1]: 17%
inhibition at 1 µM [2]: 0%
inhibition at 1 µM (BRK): 0%
inhibition at 1 µM (CDK2): 0%
inhibition at 1 µM (CSNK2A2): 14%
inhibition at 1 µM (FES): 0%
inhibition at 1 µM (FGFR3): 1%
inhibition at 1 µM (FLT3): 10%
inhibition at 1 µM (FLT3(D835H)): 10%
inhibition at 1 µM (GRK7): 13%
inhibition at 1 µM (HIPK3): 28%
inhibition at 1 µM (KIT(V559D,V654A)): 0%
inhibition at 1 µM (MAP3K3): 44%
inhibition at 1 µM (MELK): 0%
inhibition at 1 µM (MRCKA): 0%
inhibition at 1 µM (MST3): 0%
inhibition at 1 µM (PIK3CB): 25%
inhibition at 1 µM (PYK2): 0%
inhibition at 1 µM (SRMS): 17%
inhibition at 1 µM (TAOK2): 15%
inhibition at 1 µM (ULK2): 9%
inhibition at 1 µM (ULK3): 23%
inhibition at 1 µM (WNK1): 22%
inhibition at 1 µM (ZAK): 1%

Reference: publication PMC7180948, “New Insights into 4-Anilinoquinazolines as Inhibitors of Cardiac Troponin I–Interacting Kinase (TNNi3K)” (Molecules, 2020)
